Test results: the supplement of paper PMC13380429

Tests used:
Conditions in all cases: 72 h
Calu-3 [1] = assay: relative viability EC50 (midpoint between 100% and the lowest measured viability); higher = less toxic
Vero E6 [2] = assay: as above
HepG2 [3] = assay: as above
U2OS [4] = assay: cell viability relative to DMSO; higher = less toxic
Calu-3 [5] = assay: as above
Vero E6 [6] = assay: as above
Caco-2 [7] = assay: as above
HepG2 [8] = assay: as above
U2OS [9] = assay: drug sensitivity score (DSS) for viability; higher = more toxic; extreme values may be limits of the assay
Calu-3 [10] = assay: as above
Vero E6 [11] = assay: as above
Caco-2 [12] = assay: as above
HepG2 [13] = assay: as above
Caco-2 [14] = assay: relative viability EC50 (midpoint between 100% and the lowest measured viability); higher = less toxic
U2OS [15] = assay: as above

SMILES	relative viability EC50 (Calu-3 [1]) [µM]	relative viability EC50 (Vero E6 [2]) [µM]	relative viability EC50 (HepG2 [3]) [µM]	cell viability (U2OS [4]; 1 nM) [%]	cell viability (U2OS [4]; 10 nM) [%]	cell viability (U2OS [4]; 100 nM) [%]	cell viability (U2OS [4]; 1000 nM) [%]	cell viability (U2OS [4]; 10000 nM) [%]	cell viability (Calu-3 [5]; 1 nM) [%]	cell viability (Calu-3 [5]; 10 nM) [%]	cell viability (Calu-3 [5]; 100 nM) [%]	cell viability (Calu-3 [5]; 1000 nM) [%]	cell viability (Calu-3 [5]; 10000 nM) [%]	cell viability (Vero E6 [6]; 1 nM) [%]	cell viability (Vero E6 [6]; 10 nM) [%]	cell viability (Vero E6 [6]; 100 nM) [%]	cell viability (Vero E6 [6]; 1000 nM) [%]	cell viability (Vero E6 [6]; 10000 nM) [%]	cell viability (Caco-2 [7]; 1 nM) [%]	cell viability (Caco-2 [7]; 10 nM) [%]	cell viability (Caco-2 [7]; 100 nM) [%]	cell viability (Caco-2 [7]; 1000 nM) [%]	cell viability (Caco-2 [7]; 10000 nM) [%]	cell viability (HepG2 [8]; 1 nM) [%]	cell viability (HepG2 [8]; 10 nM) [%]	cell viability (HepG2 [8]; 100 nM) [%]	cell viability (HepG2 [8]; 1000 nM) [%]	cell viability (HepG2 [8]; 10000 nM) [%]	drug sensitivity score (U2OS [9])	drug sensitivity score (Calu-3 [10])	drug sensitivity score (Vero E6 [11])	drug sensitivity score (Caco-2 [12])	drug sensitivity score (HepG2 [13])	relative viability EC50 (Caco-2 [14]) [µM]	relative viability EC50 (U2OS [15]) [µM]
CC(=O)c1c(C)c2cnc(Nc3ccc(N4CCNCC4)cn3)nc2n(C2CCCC2)c1=O [palbociclib]	> 10	1.4	0.525	104	94.8	98.8	92.3	57.3	101	90.6	98.4	85.8	92.8	97.9	101	96.4	77.3	26.9	97.1	90.6	95.6	86.2	50.4	92.5	88.5	80.7	65.9	29.4	3.4	0	7.2	4.5	9.7		
CN1C[C@H](C(=O)N[C@]2(C)O[C@@]3(O)[C@@H]4CCCN4C(=O)[C@H](Cc4ccccc4)N3C2=O)C[C@@H]2c3cccc4[nH]cc(c34)C[C@H]21 [dihydroergotamine]	> 10		> 10						102	96.9	96.3	95.1	114						102	98.3	108	111	99.7	109	113	105	109	97.3		0		0	0	> 10	
O=C1NC(O)CCN1[C@@H]1O[C@H](CO)[C@@H](O)[C@H]1O (some centres undefined) [tetrahydrouridine]	> 10		> 10						108	102	103	101	96.2						101	100	95.2	102	99.2	112	101	98.1	99.1	110		0		0	0	> 10	
Oc1cc2c(cc1O)C(c1ccccc1)CNCC2 (centres undefined)	> 10	> 10	> 10	102	102	97.3	104	99	77.4	103	78.6	99.6	78	104	98.2	103	96.9	106						110	104	108	91.8	107	0	2.2	0		0		> 10
CN(C)C(=O)C(=O)c1cn(C)c2cc(Cl)c(C(=O)N3CCC(Cc4ccc(F)cc4)CC3)cc12 [SX-011]	> 10	> 10	> 10	99.1	100	97.1	102	91.2	94.6	108	116	97.3	91.2	110	94.6	100	93.2	89.2	93.9	96.3	98.3	93.5	70.4	112	102	104	102	86.5	0	0	0.1	2.3	0.1		> 10
Cc1c(C2CCN(CCc3ccccc3)CC2)noc1-c1ccc(Cl)cc1	> 10	> 10		102	98.7	101	97.3	96.6	99.9	104	101	108	80.9	105	99.4	103	98.3	90.3	103	106	99.9	98.8	68.6	102	107	96.5	95.8	71.9	0	0.3	0	1.5	1.9		> 10
N[C@@H](CSC(c1ccccc1)(c1ccccc1)c1ccccc1)C(=O)O [S-trityl-L-cysteine]	> 10	3.07	3.21	101	104	94.6	101	48.5	105	104	94.2	92.5	84.6	98.5	100	102	99.2	45	96.6	100	85.9	98.4	61.4	83.6	93	104	100	40.5	2.7	0.5	3	2.1	3.2		3.25
Cc1cc(CCC[C@H](CC(=O)NO)C(=O)N[C@H](C(=O)N[C@H](C)c2ccccc2)C(C)(C)C)ccc1-c1ccccc1	> 10		3.6	99.1	102	97.3	99.6	46.7	101	90.9	91.8	94.8	77.5	103	104	99.9	97	67.5	105	95.2	110	99.4	51.4	110	116	99.6	106	35.1	2.9	1.1	1.9	2.6	3.1		3.12
CN1CCN(CC/C=C2/c3ccccc3Sc3ccc(S(=O)(=O)N(C)C)cc32)CC1 [thiothixene]	> 10	> 10		95.7	97	95.6	99.4	84.5	96.4	102	119	104	77.6	99.5	108	97.2	91.8	88.1	107	104	103	97.5	71.4	94.2	102	104	87.6	73.3	0.3	0.6	0.2	1.6	2.6		> 10
O=C(c1c(F)ccc(NS(=O)(=O)N2CC[C@@H](F)C2)c1F)c1c[nH]c2ncc(-c3cnc(C4CC4)nc3)cc12 [PLX8394]	> 10	> 10	> 10	96	105	104	107	93.3	105	105	83.6	104	114	102	96.6	104	98.8	113	102	99.2	94.4	91.7	71.8	91	90.5	106	101	79.1	0	0	0	1.9	0.6		> 10
COc1cc([C@@H]2c3cc4c(cc3[C@@H](O[C@@H]3O[C@@H]5CO[C@@H](C)O[C@H]5[C@H](O)[C@H]3O)[C@H]3COC(=O)[C@H]23)OCO4)cc(OC)c1O [etoposide]	1.52	> 10	0.701	100	104	99.9	94.5	46.1	83.1	92.5	90.4	81.1	40.7	104	105	103	98.7	80.2	93.5	97.1	92.2	97.7	54.2	111	85.2	96.3	65.6	43.1	3.8	5.3	0.7	2.7	7.2		2.32
COc1cc2nc(C3CC3)nc(N3CCN(c4ccccc4OC)CC3)c2cc1OC [ML314]	> 10			96.5	97.4	91.5	98.2	87.1	96.6	101	102	92.7	78.3	96.9	109	95	87.6	62.9	100	91.5	97.9	94.8	59	102	92.4	100	91.6	54.1	0	1.6	3.1	2.9	3.8		> 10
CC1=C(/C=C/C(C)=C/C=C/C(C)=C/C(=O)Nc2ccc(O)cc2)C(C)(C)CCC1 [fenretinide]	> 10	> 10	> 10	97.7	97.8	99.5	104	86.8	98.9	99.9	93.3	89.5	84	95	98.9	101	101	91.1	98.7	103	100	93.2	67.9	99.6	92.6	99.1	91.3	80	0.1	0.9	0	2.5	1.2		> 10
Nc1ccn([C@@H]2O[C@H](CO)[C@@H](O)C2(F)F)c(=O)n1 [gemcitabine]	0.529		0.0105	97	105	72.9	67.8	74.1	97.5	106	86.5	63.9	40.8	102	102	62.3	59.4	61.4	100	89	72.5	66.2	72	99.5	71.2	38.3	38.9	40.3	8.6	8.2	11.9	9.9	23.1		
Cn1nnnc1SCC1=C(C(=O)O)N2C(=O)[C@@H](NC(=O)[C@H](OC=O)c3ccccc3)[C@H]2SC1 [cefamandole-nafate]	> 10	> 10	> 10						90.2	108	94.4	94.1	92.6	104	104	96.9	102	104	97.9	91.8	98.6	99.4	100	85.1	103	100	94.3	93.3		0	0	0	0	> 10	
